This note sets out measurements from US11566057B2, “Long-acting co-agonists of the glucagon and GLP-1 receptors” (Merck Sharp & Dohme Corp., priority 2017, dated 2023).

The target of one test is T1, human GLP1R (Homo sapiens, UniProt P43220).
T1 construct: expressed in transfected cells; growth medium holds Blasticidin and Hygromycin
Briefly: cAMP activity assay at the GLP-1 receptor (GLP1R). The following applies: summary statement: EC50 at each of the glucagon and GLP-1 receptors; read-out: EC50 at the GLP-1 receptor. It is filed as cell-based. In a few lines: (§1)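 Peptides serially diluted from DMSO (10 points) and added to frozen-stock cells bearing human GLP1R (10,000 cells/well) or GCGR (30,000 cells/well), 1 h at RT, dark. EC50 by four-parameter logistic fit of HitHunter cAMPXS luminescence, read following overnight RT incubation.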

Another test has as its target T2, human GCGR (Homo sapiens, UniProt P47871).
T2 construct: expressed in transfected cells; growth medium holds Blasticidin and Hygromycin
As to the kind of experiment: cAMP activity assay at the Glucagon receptor (GCGR). It is filed as cell-based. The following applies: for hGCGR/hGLP1R (hTone): ratio of GCGR EC50 to GLP1R EC50. In a few lines:
as §1

The mark [1] stands for this setting: cells expressing human GCGR, cAMP production, buffer with or without 20% human serum (not stated which), read-out: GCGR EC50 human.
Setting [2] is: summary statement: EC50 at each of the glucagon and GLP-1 receptors, read-out: EC50 at the glucagon receptor.

Like-named read-outs stand apart in the source and are kept apart here. Numbered stars: 1 amine (or outer) side, 2 acyl side, 3 side chain; on linkers, the order of the positions; unused ones are H or OH. Square brackets hold non-standard residues; d marks the D form. Side chains are listed from the residue outwards. Peptide text beside a SMILES is read from it. * marks the point of attachment. Phe(4-CH2NH2) = NCc1ccc(C[C@H](N)C(=O)O)cc1; C18 diacid = O=C(O)CCCCCCCCCCCCCCCCC(=O)*; αMeW = C[C@](N)(Cc1c[nH]c2ccccc12)C(=O)O; C16 diacid = O=C(O)CCCCCCCCCCCCCCC(=O)*; γGlu = O=C(O)[C@H](CCC(=O)[*:2])N[*:1]; Met(O2) = CS(=O)(=O)CC[C@H](N)C(=O)O; αMeD = C[C@](N)(CC(=O)O)C(=O)O; αMeS = C[C@](N)(CO)C(=O)O; AEEA = NCCOCCOCC(=O)O; Aib = CC(C)(N)C(=O)O A value given as a limit tells only on which side of the number the result lay.

T2 sequence (P47871 26-477): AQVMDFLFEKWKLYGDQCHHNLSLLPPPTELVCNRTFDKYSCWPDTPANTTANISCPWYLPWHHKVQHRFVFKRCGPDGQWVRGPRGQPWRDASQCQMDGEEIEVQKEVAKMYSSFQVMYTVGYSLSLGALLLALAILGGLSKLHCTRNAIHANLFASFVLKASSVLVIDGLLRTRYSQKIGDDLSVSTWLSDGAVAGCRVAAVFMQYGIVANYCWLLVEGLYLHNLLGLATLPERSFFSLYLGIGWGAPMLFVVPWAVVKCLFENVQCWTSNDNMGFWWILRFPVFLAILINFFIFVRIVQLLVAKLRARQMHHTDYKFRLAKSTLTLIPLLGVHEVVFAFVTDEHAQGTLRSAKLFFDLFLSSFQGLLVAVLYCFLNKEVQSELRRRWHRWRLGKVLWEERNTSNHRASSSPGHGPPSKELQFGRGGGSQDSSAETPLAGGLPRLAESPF
T1 sequence (P43220 24-463): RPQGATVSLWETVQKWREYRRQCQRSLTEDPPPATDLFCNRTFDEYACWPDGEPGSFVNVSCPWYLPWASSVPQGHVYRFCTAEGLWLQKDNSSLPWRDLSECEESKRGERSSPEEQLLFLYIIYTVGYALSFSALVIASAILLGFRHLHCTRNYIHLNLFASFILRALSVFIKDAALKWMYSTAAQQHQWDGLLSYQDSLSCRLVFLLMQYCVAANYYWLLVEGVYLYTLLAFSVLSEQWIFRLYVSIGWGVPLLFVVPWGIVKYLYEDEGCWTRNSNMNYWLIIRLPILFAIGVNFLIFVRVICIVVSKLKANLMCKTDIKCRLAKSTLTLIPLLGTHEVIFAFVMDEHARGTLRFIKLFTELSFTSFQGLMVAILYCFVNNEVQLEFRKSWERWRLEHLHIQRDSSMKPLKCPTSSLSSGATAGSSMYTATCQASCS

Take `CC(C)C[C@H](NC(=O)[C@H](Cc1ccc(O)cc1)NC(=O)[C@H](CCCCN)NC(=O)[C@H](CO)NC(=O)[C@H](Cc1ccc(O)cc1)NC(=O)[C@H](CC(=O)O)NC(=O)[C@H](CO)NC(=O)[C@@H](NC(=O)[C@H](Cc1ccccc1)NC(=O)[C@@H](NC(=O)CNC(=O)[C@H](CCC(N)=O)NC(=O)[C@](C)(CO)NC(=O)[C@@H](N)Cc1c[nH]cn1)[C@@H](C)O)[C@@H](C)O)C(=O)N[C@@H](CC(=O)O)C(=O)NC(C)(C)C(=O)N[C@@H](CCCNC(=N)N)C(=O)N[C@@H](C)C(=O)N[C@@H](C)C(=O)N[C@@H](CCC(N)=O)C(=O)N[C@@H](CCCCNC(=O)COCCOCCNC(=O)COCCOCCNC(=O)CC[C@H](NC(=O)CCCCCCCCCCCCCCCCC(=O)O)C(=O)O)C(=O)N[C@@H](Cc1ccccc1)C(=O)N[C@H](C(=O)N[C@@H](CCC(N)=O)C(=O)N[C@@H](Cc1c[nH]c2ccccc12)C(=O)N[C@@H](CC(C)C)C(=O)N[C@@H](CCS(C)(=O)=O)C(=O)N[C@@](C)(CC(=O)O)C(=O)N[C@H](C(N)=O)[C@@H](C)O)C(C)C` [TP621] (H-H[αMeS]QGTFTSDYSKYLD[Aib]RAAQK([AEEA-AEEA-γGlu-C18 diacid])FVQWL[Met(O2)][αMeD]T-NH2): the concentration for a half-maximal effect (EC50) is below 5 nM on human GLP1R, 0.25 nM on human GCGR (setting [1]) and below 5 nM on human GCGR (setting [2]). In addition, the “hGCGR/hGLP1R (hTone)” value at human GCGR stood at 0.1.
As to `CC(C)C[C@H](NC(=O)[C@H](Cc1ccc(O)cc1)NC(=O)[C@H](CCCCN)NC(=O)[C@H](CO)NC(=O)[C@H](Cc1ccc(CNC(=O)COCCOCCNC(=O)CC[C@H](NC(=O)CCCCCCCCCCCCCCC(=O)O)C(=O)O)cc1)NC(=O)[C@H](CC(=O)O)NC(=O)[C@H](CO)NC(=O)[C@@H](NC(=O)[C@H](Cc1ccccc1)NC(=O)[C@@H](NC(=O)CNC(=O)[C@H](CCC(N)=O)NC(=O)C(C)(C)NC(=O)[C@@H](N)Cc1c[nH]cn1)[C@@H](C)O)[C@@H](C)O)C(=O)N[C@@H](CC(=O)O)C(=O)N[C@@H](C)C(=O)N[C@@H](CCCNC(=N)N)C(=O)N[C@@H](C)C(=O)N[C@@H](C)C(=O)N[C@@H](CCC(N)=O)C(=O)N[C@@H](CC(=O)O)C(=O)N[C@@H](Cc1ccccc1)C(=O)N[C@H](C(=O)N[C@@H](CCC(N)=O)C(=O)N[C@@H](Cc1c[nH]c2ccccc12)C(=O)N[C@@H](CC(C)C)C(=O)N[C@@H](CCS(C)(=O)=O)C(=O)N[C@@H](CC(=O)O)C(=O)N[C@H](C(N)=O)[C@@H](C)O)C(C)C` [TP622] (H-H[Aib]QGTFTSD[Phe(4-CH2NH2)]([AEEA-γGlu-C16 diacid])SKYLDARAAQDFVQWL[Met(O2)]DT-NH2; N-terminus assumed), the EC50 on human GLP1R and on human GCGR (setting [2]) was below 5 nM throughout. Also, at human GCGR, the “hGCGR/hGLP1R (hTone)” value was determined as 0.4.
With `CC(C)C[C@H](NC(=O)[C@H](Cc1ccc(O)cc1)NC(=O)[C@H](CCCCN)NC(=O)[C@H](CO)NC(=O)[C@H](Cc1ccc(CNC(=O)COCCOCCNC(=O)CC[C@H](NC(=O)CCCCCCCCCCCCCCCCC(=O)O)C(=O)O)cc1)NC(=O)[C@H](CC(=O)O)NC(=O)[C@H](CO)NC(=O)[C@@H](NC(=O)[C@H](Cc1ccccc1)NC(=O)[C@@H](NC(=O)CNC(=O)[C@H](CCC(N)=O)NC(=O)C(C)(C)NC(=O)[C@@H](N)Cc1c[nH]cn1)[C@@H](C)O)[C@@H](C)O)C(=O)N[C@@H](CC(=O)O)C(=O)N[C@@H](C)C(=O)N[C@@H](CCCNC(=N)N)C(=O)N[C@@H](C)C(=O)N[C@@H](C)C(=O)N[C@@H](CCC(N)=O)C(=O)N[C@@H](CC(=O)O)C(=O)N[C@@H](Cc1ccccc1)C(=O)N[C@H](C(=O)N[C@@H](CCC(N)=O)C(=O)N[C@@H](Cc1c[nH]c2ccccc12)C(=O)N[C@@H](CC(C)C)C(=O)N[C@@H](CCS(C)(=O)=O)C(=O)N[C@@H](CC(=O)O)C(=O)N[C@H](C(N)=O)[C@@H](C)O)C(C)C` [TP623] (H-H[Aib]QGTFTSD[Phe(4-CH2NH2)]([AEEA-γGlu-C18 diacid])SKYLDARAAQDFVQWL[Met(O2)]DT-NH2), the 50% effective concentration (EC50) on human GLP1R and at human GCGR (setting [2]) was below 5 nM throughout. For the same compound, the “hGCGR/hGLP1R (hTone)” value at human GCGR came out at 0.5.
On to `CC(C)C[C@H](NC(=O)[C@H](Cc1ccc(O)cc1)NC(=O)[C@H](CCCCN)NC(=O)[C@H](CO)NC(=O)[C@H](Cc1ccc(CNC(=O)COCCOCCNC(=O)COCCOCCNC(=O)CC[C@H](NC(=O)CCCCCCCCCCCCCCCCC(=O)O)C(=O)O)cc1)NC(=O)[C@H](CC(=O)O)NC(=O)[C@H](CO)NC(=O)[C@@H](NC(=O)[C@H](Cc1ccccc1)NC(=O)[C@@H](NC(=O)CNC(=O)[C@H](CCC(N)=O)NC(=O)C(C)(C)NC(=O)[C@@H](N)Cc1c[nH]cn1)[C@@H](C)O)[C@@H](C)O)C(=O)N[C@@H](CC(=O)O)C(=O)N[C@@H](C)C(=O)N[C@@H](CCCNC(=N)N)C(=O)N[C@@H](C)C(=O)N[C@@H](C)C(=O)N[C@@H](CCC(N)=O)C(=O)N[C@@H](CC(=O)O)C(=O)N[C@@H](Cc1ccccc1)C(=O)N[C@H](C(=O)N[C@@H](CCC(N)=O)C(=O)N[C@@H](Cc1c[nH]c2ccccc12)C(=O)N[C@@H](CC(C)C)C(=O)N[C@@H](CCS(C)(=O)=O)C(=O)N[C@@](C)(CC(=O)O)C(=O)N[C@H](C(N)=O)[C@@H](C)O)C(C)C` [TP624] (H-H[Aib]QGTFTSD[Phe(4-CH2NH2)]([AEEA-AEEA-γGlu-C18 diacid])SKYLDARAAQDFVQWL[Met(O2)][αMeD]T-NH2; N-terminus assumed), for which the EC50 at human GLP1R and at human GCGR (setting [2]) was below 5 nM throughout. In addition, at human GCGR, the “hGCGR/hGLP1R (hTone)” value is 1.1.
Consider `CC(C)C[C@H](NC(=O)[C@H](Cc1ccc(O)cc1)NC(=O)[C@H](CCCCN)NC(=O)[C@H](CO)NC(=O)[C@H](Cc1ccc(CNC(=O)COCCOCCNC(=O)COCCOCCNC(=O)CC[C@H](NC(=O)CCCCCCCCCCCCCCCCC(=O)O)C(=O)O)cc1)NC(=O)[C@H](CC(=O)O)NC(=O)[C@H](CO)NC(=O)[C@@H](NC(=O)[C@H](Cc1ccccc1)NC(=O)[C@@H](NC(=O)CNC(=O)[C@H](CCC(N)=O)NC(=O)C(C)(C)NC(=O)[C@@H](N)Cc1c[nH]cn1)[C@@H](C)O)[C@@H](C)O)C(=O)N[C@@H](CC(=O)O)C(=O)N[C@@H](C)C(=O)N[C@@H](CCCNC(=N)N)C(=O)N[C@@H](C)C(=O)N[C@@H](C)C(=O)N[C@@H](CCC(N)=O)C(=O)N[C@@H](CC(=O)O)C(=O)N[C@@H](Cc1ccccc1)C(=O)N[C@H](C(=O)N[C@@H](CCC(N)=O)C(=O)N[C@@](C)(Cc1c[nH]c2ccccc12)C(=O)N[C@@H](CC(C)C)C(=O)N[C@@H](CCS(C)(=O)=O)C(=O)N[C@@H](CC(=O)O)C(=O)N[C@H](C(N)=O)[C@@H](C)O)C(C)C` [TP625] (H-H[Aib]QGTFTSD[Phe(4-CH2NH2)]([AEEA-AEEA-γGlu-C18 diacid])SKYLDARAAQDFVQ[αMeW]L[Met(O2)]DT-NH2; N-terminus assumed), for which the EC50 on human GLP1R and at human GCGR (setting [2]) was below 5 nM throughout. Besides, at human GCGR, the “hGCGR/hGLP1R (hTone)” value came out at 3.4.
For the compound `CC(C)C[C@H](NC(=O)[C@H](Cc1ccc(O)cc1)NC(=O)[C@H](CCCCN)NC(=O)[C@H](CO)NC(=O)[C@H](Cc1ccc(O)cc1)NC(=O)[C@H](CC(=O)O)NC(=O)[C@H](CO)NC(=O)[C@@H](NC(=O)[C@H](Cc1ccccc1)NC(=O)[C@@H](NC(=O)CNC(=O)[C@H](CCC(N)=O)NC(=O)C(C)(C)NC(=O)[C@@H](N)Cc1c[nH]cn1)[C@@H](C)O)[C@@H](C)O)C(=O)N[C@@H](CC(=O)O)C(=O)N[C@@H](C)C(=O)N[C@@H](CCCNC(=N)N)C(=O)N[C@@H](C)C(=O)N[C@@H](C)C(=O)N[C@@H](CCCCNC(=O)COCCOCCNC(=O)CC[C@H](NC(=O)CCCCCCCCCCCCCCCCC(=O)O)C(=O)O)C(=O)N[C@@H](CC(=O)O)C(=O)N[C@@H](Cc1ccccc1)C(=O)N[C@H](C(=O)N[C@@H](CCC(N)=O)C(=O)N[C@@H](Cc1c[nH]c2ccccc12)C(=O)N[C@@H](CC(C)C)C(=O)N[C@@H](CCS(C)(=O)=O)C(=O)N[C@@H](CC(=O)O)C(=O)N[C@H](C(N)=O)[C@@H](C)O)C(C)C` [TP626] (H-H[Aib]QGTFTSDYSKYLDARAAK([AEEA-γGlu-C18 diacid])DFVQWL[Met(O2)]DT-NH2; N-terminus assumed), the EC50 on human GLP1R and on human GCGR (setting [2]) was below 5 nM in each case. The “hGCGR/hGLP1R (hTone)” value at human GCGR was found to be 0.6.
On to `CC(C)C[C@H](NC(=O)[C@H](Cc1ccc(O)cc1)NC(=O)[C@H](CCCCN)NC(=O)[C@H](CO)NC(=O)[C@H](Cc1ccc(O)cc1)NC(=O)[C@H](CC(=O)O)NC(=O)[C@H](CO)NC(=O)[C@@H](NC(=O)[C@H](Cc1ccccc1)NC(=O)[C@@H](NC(=O)CNC(=O)[C@H](CCC(N)=O)NC(=O)C(C)(C)NC(=O)[C@@H](N)Cc1c[nH]cn1)[C@@H](C)O)[C@@H](C)O)C(=O)N[C@@H](CC(=O)O)C(=O)N[C@@H](C)C(=O)N[C@@H](CCCNC(=N)N)C(=O)N[C@@H](C)C(=O)N[C@@H](C)C(=O)N[C@@H](CCCCNC(=O)COCCOCCNC(=O)CC[C@H](NC(=O)CCCCCCCCCCCCCCC(=O)O)C(=O)O)C(=O)N[C@@H](CC(=O)O)C(=O)N[C@@H](Cc1ccccc1)C(=O)N[C@H](C(=O)N[C@@H](CCC(N)=O)C(=O)N[C@@H](Cc1c[nH]c2ccccc12)C(=O)N[C@@H](CC(C)C)C(=O)N[C@@H](CCS(C)(=O)=O)C(=O)N[C@@](C)(CC(=O)O)C(=O)N[C@H](C(N)=O)[C@@H](C)O)C(C)C` [TP627] (H-H[Aib]QGTFTSDYSKYLDARAAK([AEEA-γGlu-C16 diacid])DFVQWL[Met(O2)][αMeD]T-NH2; N-terminus assumed), for which the EC50 at human GLP1R was below 5 nM; on human GCGR (setting [1]), 0.14 nM; at human GCGR (setting [2]) it was below 5 nM. In addition, the “hGCGR/hGLP1R (hTone)” value on human GCGR is 0.6.
